Consider two molecules from patent US6569866B2, “Sustained-release nalmefene preparations and method” (priority 1996, dated 2003).

Structures are written as SMILES.

Data set [1] in a line: Expected serum concentration after intranasal nalmefene spray (10 mg/ml solution, 0.1 ml per spray). The data set is classed as in vivo, human. Here is the method:
A tartrate, stearate or palmitate formulation of nalmefene may be used, or nalmefene may be in the form of nalmefene hydrochloride, and formulated such that 1 gram of active nalmefene is mixed with 80 ml of distilled water, then adjusted to a pH of approximately 7.4 with dilute sodium hydroxide, and then isotonic saline is added along with a suitable preservative and antibacterial agent, to yield a total volume of 100 ml. This yields a nalmefene solution with a concentration of 10 mg/ml nalmefene. This final solution is passed through a 0.2 micron Millipor filter to remove bacteria and other undesired particles. The filtered solution is then placed aseptically into a container to which is then attached a metered dosing mechanism which allows approximately 0.1 ml to be delivered in each spray. An example of such a metered dosing system in found with the commercially marketed Stadol NS® (Bristol-Myers Squibb Co.). One spray to one nostril may be expected to yield a blood serum concentration of approximately 1 ng/ml 30-90 minutes after administration. […] Alternatively, the human may be given a loading dose of intravenous nalmefene and then transferred to a nasal administration regimen. A practical dosing schedule for nalmefene may be 1.5 mg intranasally every 12 hours. […]

For data set [2] the following is noted: cited from earlier work.
The target in the next data set is kappa-receptor (Homo sapiens, UniProt P41145). The conditions noted are these: Kreek et al.; cited from earlier work.
Data set [3] addresses intraspinal kappa receptors (Rattus norvegicus, UniProt P34975). The settings on record: after spinal cord injury; Bakshi et al.; cited from earlier work.
The conditions of data set [4]: single dose after acute spinal cord injury; Behrmann et al.; cited from earlier work.
The conditions of data set [5]: per os administration; cited from earlier work.

Sequence of kappa-receptor (P41145 whole entry): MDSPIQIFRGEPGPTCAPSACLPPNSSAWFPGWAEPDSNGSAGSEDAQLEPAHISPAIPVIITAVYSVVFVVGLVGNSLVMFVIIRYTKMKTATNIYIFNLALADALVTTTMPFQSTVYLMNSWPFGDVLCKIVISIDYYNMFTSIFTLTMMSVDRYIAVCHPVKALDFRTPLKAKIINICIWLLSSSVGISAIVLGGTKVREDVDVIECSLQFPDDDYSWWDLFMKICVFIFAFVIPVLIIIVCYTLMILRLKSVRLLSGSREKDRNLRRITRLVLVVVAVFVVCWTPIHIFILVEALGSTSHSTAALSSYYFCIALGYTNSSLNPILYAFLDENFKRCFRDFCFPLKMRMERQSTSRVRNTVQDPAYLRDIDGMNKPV
Sequence of intraspinal kappa receptors (P34975 whole entry): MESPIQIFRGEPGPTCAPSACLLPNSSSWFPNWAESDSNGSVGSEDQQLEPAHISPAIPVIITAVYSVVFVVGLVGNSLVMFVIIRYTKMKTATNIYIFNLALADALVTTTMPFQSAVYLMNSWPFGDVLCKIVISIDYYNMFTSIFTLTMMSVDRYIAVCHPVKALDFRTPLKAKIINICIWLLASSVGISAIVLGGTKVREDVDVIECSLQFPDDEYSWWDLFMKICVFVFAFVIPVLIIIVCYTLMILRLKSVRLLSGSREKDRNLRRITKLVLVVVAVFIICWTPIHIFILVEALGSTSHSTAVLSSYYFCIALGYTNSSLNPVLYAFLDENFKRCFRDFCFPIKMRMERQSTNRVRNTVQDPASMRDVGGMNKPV

Regarding `C=C1CC[C@@]2(O)[C@H]3Cc4ccc(O)c5c4[C@@]2(CCN3CC2CC2)[C@H]1O5` [nalmefene], the “steady state serum concentration” value in data set [1] (5 consecutive 1 mg intranasal doses approximately 11 hours apart) is on record as “approximately 1 ng/ml”. For the same molecule, in data set [1] (one 0.1 ml spray of 10 mg/ml solution to one nostril, 30-90 minutes after administration), the “blood serum concentration after one spray” value is given as “approximately 1 ng/ml”. In addition, in data set [2] (approximate average in non-elderly adult humans), the “average volume of distribution (Vd)” value was around 8.6 L/kg. Besides, the serum half life entry in data set [2] (in vivo) is recorded as “approximately 10.8 hours”. Moreover, in data set [2] (value furnished by a distributor of nalmefene), the “elimination constant (Ke)” value is 0.0642 h⁻¹. Besides, the “potency as kappa-receptor antagonist compared with other antagonists” value at kappa-receptor was “more potent than either naloxone or naltrexone”. Besides, the “effect on dynorphin induced motor dysfunction” value in data set [3] was “limits dynorphin induced motor dysfunction”. Moreover, in data set [4], the “effect on neurological recovery / neuroprotection” value is given as “significant neuroprotective effect”. Besides, the first pass metabolism entry in data set [5] was “very significant first pass metabolism”.
`O=C1CC[C@@]2(O)[C@H]3Cc4ccc(O)c5c4[C@@]2(CCN3CC2CC2)[C@H]1O5` [naltrexone]: in data set [5], the first pass metabolism entry is on record as “very significant first pass metabolism”.
